PMC8148468, “Shikimic acid protects skin cells from UV-induced senescence through activation of the NAD+-dependent deacetylase SIRT1” (Aging (Albany NY), 2021)

How the values were obtained:
[1] = system: primary human dermal fibroblasts (HDFs); conditions: female, human
From the text: In our efforts to identify novel factors that could prevent skin cell senescence, we developed a screening process to identify new modulators of the protective role of sirtuins in UV-induced senescence. For this purpose, we established a culture of primary human dermal fibroblasts (HDFs). […] Our first step in the screening was to establish the optimal concentrations of these compounds in the case of HDFs. […] Once established, we took these parameters into account to decide the specific working range of concentrations for each compound.
Human dermal fibroblasts (HDFs) (Promocell, Germany) from 40-year old Caucasian women were used as the in vitro model for compound viability and efficacy screening. Cells were cultured in Dulbecco's modified eagle medium (DMEM) low glucose (Biowest, France) supplemented with 10% fetal bovine serum (FBS) (Capricorn Scientific, Germany) and 10 U/mL penicillin/streptomycin (Biowest, France) in a humidified incubator at 37° C and 5% CO2. For cell passage, cells at 80% confluence were trypsinized and plated at 60% confluence. Cells between passage 13 and 18 were used for the assays. For the SIRT1 in vitro assay, HEK293 cells (ATCC, USA), used to transfect and immunoprecipitate SIRT1 protein, were grown in DMEM high glucose (Thermo Fisher Scientific, USA), supplemented with 10% FBS in a humidified incubator at 37° C and 5% CO2. The following experiments were all performed in triplicate.
The protocol for senescence induction using UVB irradiation is described in the Supplementary Methods. SA-β-Gal staining, WST-1, sulforhodamine B (SRB) and trypan blue assays were performed as previously described. For the siRNA experiments, the protocol for senescence induction using UVB irradiation was the same as in the Supplementary Methods. Specific siRNA (Horizon discovery, UK) for SIRT1, SIRT2, SIRT6, BiP or scramble siRNA were incubated for 6 hours before each irradiation step.

UVB-irradiated HDF cells = experiment: Apoptosis detection, Annexin V-FITC/PI flow cytometry; format: cell-based, human; conditions: UVB-irradiated cells exposed to SA 10, 25, 50 mM
Protocol: Figure 4 (A) SRB and Trypan blue cell viability assays performed in cells treated with or without Shikimic acid (5, 10, 25 and 50 mM) for 24h. (B) Apoptosis detection using the Annexin V-FITC/PI double staining followed by flow cytometry in non-irradiated and non-treated cells, irradiated and non-treated cells and irradiated cells treated with Shikimic acid (10, 25 and 50 mM). (C) Representation and statistical analysis of the percentage of apoptotic cells in each of the conditions analyzed. (D) Cell cycle analysis using PI staining followed by flow cytometry. (E) Relative p16^INK4a mRNA levels monitored by qPCR in the indicated conditions. Student T-test, *p<0.05. (F) Immunofluorescence of γH2AX in non-irradiated and non-treated cells, irradiated and non-treated cells and irradiated cells treated with Shikimic acid (10, 25 and 50 mM). […]
Fluorescence-activated cell sorting (FACS) analyses of the cell cycle and apoptosis were carried out using, respectively, a Propidium Iodide Flow Cytometry Kit (Abcam, UK), and an Annexin V-FITC Apoptosis Staining/Detection Kit (Abcam, UK), following the manufacturer’s instructions. […]

LC3-II = LC3-II protein levels (Western blot); format: cell-based, human; conditions: UVB-irradiated cells, SA -/+ EX-527 1 μM (reversion at SA 10mM)
Protocol: Figure 5 (A) Western-blot of BiP proteins levels in UVB or non UVB irradiated cells treated with SA at the indicated concentrations in presence or absence of EX-527 1 μM. (B) Quantification of n=3 experiments as (A). The levels of BiP are normalized by the loading control (histone H3) and represented related to the conditions in UVB irradiated cells in absence of SA and EX-527. Student T-test, *p<0.05. (C) Percentage of SA-β-Gal in assays performed as in Figure 3C. (D) Levels of spliced and unspliced XBP1 mRNA monitored by qPCR analysis in cells treated in the indicated conditions in presence or absence of SA and/or EX-527. The levels were normalized by internal controls and represented in each case related to the conditions in UVB irradiated cells in absence of SA and EX-527. Student T-test, *p<0.05, **p<0.01, ***p<0.001. (E) LC3-II protein levels in experiments like in (A). The levels of LC3-II are normalized by the loading control (tubulin) and represented related to the conditions in UVB irradiated cells in absence of SA and EX-527. Student T-test, *p<0.05. (F) Proposed Model for the effect of SA on senescence through SIRT1. Other possible unexplored connections between SA and senescence are indicated by blue broken lines.
Protein levels were analyzed as previously described. Cells were directly lysed in 1x Laemmli Buffer (Bio-Rad, USA), incubated at 95° C and centrifuged. […]

**Q.** How did the “LD50” value [1] turn out when `O=C(O)C1=C[C@@H](O)[C@@H](O)[C@H](O)C1` [Shikimic acid] was run?
**A.** The value was 58.44 mM.

**Q.** What about the “Max. non-cyt. doses” value [1] of the same compound?
**A.** The value was 25 mM.

**Q.** And the “early apoptosis (annexin V, text)” value (UVB-irradiated HDF cells)?
**A.** Its value is “very mild and mostly insignificant levels of early apoptosis”.

**Q.** What about the LC3-II protein levels (LC3-II) of the same compound?
**A.** The LC3-II protein levels was “SA-dependent decrease in the levels of LC3-II”.
